# Measured values taken from ChEMBL document CHEMBL4819148, “Anti-protozoal and anti-fungal evaluation of 3,5-disubstituted 1,2-dioxolanes” (Bioorg Med Chem Lett, 2021).
# Key:
# Candida albicans [1] = test: Antifungal activity against Candida albicans CAAL93 assessed as reduction in fungal growth; assay type: functional, organism-based
# Aspergillus fumigatus = test: Antifungal activity against Aspergillus fumigatus ASFU76 assessed as reduction in fungal growth after; assay type: functional, organism-based
# Plasmodium falciparum [2] = test: Antimalarial activity against Plasmodium falciparum 3D7 assessed as inhibition of parasite growth; assay type: functional, organism-based
# Leishmania donovani [3] = test: Antileishmanial activity against axenic amastigote form of Leishmania donovani LV9 assessed as reduction in parasite growth; assay type: functional, organism-based
# Leishmania donovani [4] = test: Antileishmanial activity against intramacrophage form of Leishmania donovani LV9 assessed as reduction in parasite growth; assay type: functional, organism-based
# [5] = Cytotoxicity against HUVEC cells assessed as reduction in cell viability; assay type: cell-based; settings: human
# [6] = Selectivity index, ratio of CC50 for cytotoxicity against HUVEC cells to IC50 for antiplasmodial activity against Plasmodium falciparum 3D7; assay type: toxicity, cell-based; settings: human, read-out: Ratio CC50/IC50
# [7] = Selectivity index, ratio of CC50 for cytotoxicity against HUVEC cells to IC50 for antileishmanial activity against axenic amastigote form of Leishmania donovani LV9; assay type: toxicity, cell-based; settings: human, read-out: Ratio CC50/IC50
# Plasmodium falciparum [8] = test: Antimalarial activity against Plasmodium falciparum; assay type: functional, organism-based
# Candida albicans [9] = test: Antifungal activity against wild type Candida albicans; assay type: functional
structure (smiles),measurement,setting,value
CCCCCCC1CC(CC(=O)Sc2ccccc2)OO1 (mixture of isomers),IC50,Candida albicans [1],> 100 µM
same,IC50,Aspergillus fumigatus,> 100 µM
same,IC50,Plasmodium falciparum [2],> 1 µM
same,IC50,Leishmania donovani [3],2.2 µM
same,IC50,Leishmania donovani [4],> 100 µM
same,CC50,[5],1.82 µM
same,selectivity ratio,[6],< 1.8
same,selectivity ratio,[7],0.83
C=CCC1CC(C2CCCCC2)OO1 (mixture of isomers),IC50,Candida albicans [1],> 100 µM
same,IC50,Aspergillus fumigatus,> 100 µM
same,IC50,Plasmodium falciparum [2],> 1 µM
same,IC50,Leishmania donovani [3],6.78 µM
CCCCCCC1CC(OC(C)=O)OO1 (mixture of isomers),IC50,Candida albicans [1],> 100 µM
same,IC50,Aspergillus fumigatus,> 100 µM
same,IC50,Plasmodium falciparum [2],> 1 µM
same,IC50,Leishmania donovani [3],70.7 µM
same,IC50,Leishmania donovani [4],> 100 µM
same,CC50,[5],57.8 µM
same,selectivity ratio,[6],< 57
same,selectivity ratio,[7],0.82
C=CCC1CC(CCO[Si](c2ccccc2)(c2ccccc2)C(C)(C)C)OO1 (mixture of isomers),IC50,Candida albicans [1],> 100 µM
same,IC50,Aspergillus fumigatus,> 100 µM
same,IC50,Plasmodium falciparum [2],> 1 µM
same,IC50,Leishmania donovani [3],> 100 µM
CCCCCCC1CC(C#N)OO1 (mixture of isomers),IC50,Candida albicans [1],> 100 µM
same,IC50,Aspergillus fumigatus,> 100 µM
same,IC50,Plasmodium falciparum [2],> 1 µM
same,IC50,Leishmania donovani [3],42.9 µM
same,IC50,Leishmania donovani [4],> 100 µM
same,CC50,[5],10.9 µM
same,selectivity ratio,[6],< 10
same,selectivity ratio,[7],0.26
CC(=O)OC1CC(C(C)C)OO1 (mixture of isomers),IC50,Candida albicans [1],> 100 µM
same,IC50,Aspergillus fumigatus,> 100 µM
same,IC50,Plasmodium falciparum [2],0.1 µM
same,IC50,Leishmania donovani [3],> 100 µM
same,IC50,Leishmania donovani [4],32.9 µM
same,CC50,[5],59.3 µM
same,selectivity ratio,[7],< 0.59
C=C/C=C/C=C\C=C\C=C\C=C/C=C\C[C@H]1C[C@@H](CC(=O)O)OO1,EC50,Plasmodium falciparum [8],0.052 µM
same,MIC,Candida albicans [9],0.61 µM
CCCCCCCCCCCCCCC[C@H]1C[C@@H](CC(=O)O)OO1,IC50,Candida albicans [1],> 100 µM
same,IC50,Aspergillus fumigatus,> 100 µM
same,IC50,Plasmodium falciparum [2],> 1 µM
same,IC50,Leishmania donovani [3],6.16 µM
CC(=O)OC1CC(C2CCCCC2)OO1 (mixture of isomers),IC50,Candida albicans [1],> 100 µM
same,IC50,Aspergillus fumigatus,> 100 µM
same,IC50,Plasmodium falciparum [2],> 1 µM
same,IC50,Leishmania donovani [3],56.6 µM
C[C@@H]1[C@H](O)[C@@H](C)/C=C/C=C/C=C/C=C/C=C/C=C/C=C/[C@H](O[C@@H]2O[C@H](C)[C@@H](O)[C@H](N)[C@@H]2O)C[C@@H]2O[C@](O)(C[C@@H](O)C[C@@H](O)[C@H](O)CC[C@@H](O)C[C@@H](O)CC(=O)O[C@H]1C)C[C@H](O)[C@H]2C(=O)O [AMPHOTERICIN B],IC50,Aspergillus fumigatus,0.33 µM
CCN(CC)CCCC(C)Nc1ccnc2cc(Cl)ccc12 (configuration not stated) [CHLOROQUINE],CC50,[5],31.5 µM
CCCCCCCCCCCCCCCCOP(=O)([O-])OCC[N+](C)(C)C [MILTEFOSINE],IC50,Leishmania donovani [3],1.7 µM
same,IC50,Leishmania donovani [4],0.61 µM
same,CC50,[5],54.3 µM
same,selectivity ratio,[7],32
CC(C)(C)C1CC(O)OO1 (mixture of isomers),IC50,Candida albicans [1],> 100 µM
same,IC50,Aspergillus fumigatus,> 100 µM
same,IC50,Plasmodium falciparum [2],0.34 µM
same,IC50,Leishmania donovani [3],> 100 µM
same,IC50,Leishmania donovani [4],> 100 µM
same,CC50,[5],12.2 µM
same,selectivity ratio,[6],35
same,selectivity ratio,[7],< 0.12
CCCCCCC1CC(C/C=C\Cl)OO1 (mixture of isomers),IC50,Candida albicans [1],33.4 µM
same,IC50,Aspergillus fumigatus,> 100 µM
same,IC50,Plasmodium falciparum [2],0.15 µM
same,IC50,Leishmania donovani [3],1.5 µM
same,IC50,Leishmania donovani [4],28.4 µM
same,CC50,[5],6.13 µM
same,selectivity ratio,[6],40
same,selectivity ratio,[7],4.09
CC(=O)OC1CC(C(C)(C)C)OO1 (mixture of isomers),IC50,Candida albicans [1],> 100 µM
same,IC50,Aspergillus fumigatus,> 100 µM
same,IC50,Plasmodium falciparum [2],0.02 µM
same,IC50,Leishmania donovani [3],> 100 µM
same,IC50,Leishmania donovani [4],44.3 µM
same,CC50,[5],12.6 µM
same,selectivity ratio,[6],628
same,selectivity ratio,[7],< 0.13
CCCCCCCCCCCCCCC[C@H]1C[C@@H](CCO)OO1 (mixture of isomers),IC50,Candida albicans [1],> 100 µM
same,IC50,Aspergillus fumigatus,> 100 µM
same,IC50,Plasmodium falciparum [2],> 1 µM
same,IC50,Leishmania donovani [3],5.57 µM
C=CCC1CC(CCCCCC)OO1 (mixture of isomers),IC50,Candida albicans [1],25.2 µM
same,IC50,Aspergillus fumigatus,> 100 µM
same,IC50,Plasmodium falciparum [2],0.1 µM
same,IC50,Leishmania donovani [3],> 100 µM
same,CC50,[5],0.7 µM
same,selectivity ratio,[6],7
same,selectivity ratio,[7],< 0.01
CCCCCCC1CC(CC(=O)C(C)(C)C)OO1 (mixture of isomers),IC50,Candida albicans [1],> 100 µM
same,IC50,Aspergillus fumigatus,> 100 µM
same,IC50,Plasmodium falciparum [2],> 1 µM
same,IC50,Leishmania donovani [3],4.42 µM
same,IC50,Leishmania donovani [4],> 100 µM
same,CC50,[5],6.09 µM
same,selectivity ratio,[6],< 6
same,selectivity ratio,[7],1.38
OC(Cn1cncn1)(Cn1cncn1)c1ccc(F)cc1F [FLUCONAZOLE],IC50,Candida albicans [1],0.3 µM
CCCCCCC1CC(O)OO1 (mixture of isomers),IC50,Candida albicans [1],> 100 µM
same,IC50,Aspergillus fumigatus,> 100 µM
same,IC50,Plasmodium falciparum [2],> 1 µM
same,IC50,Leishmania donovani [3],> 100 µM
same,IC50,Leishmania donovani [4],> 100 µM
same,CC50,[5],71.7 µM
same,selectivity ratio,[6],< 71
same,selectivity ratio,[7],< 0.72
CC(C)C1CC(O)OO1 (mixture of isomers),IC50,Candida albicans [1],> 100 µM
same,IC50,Aspergillus fumigatus,> 100 µM
same,IC50,Plasmodium falciparum [2],0.12 µM
same,IC50,Leishmania donovani [3],> 100 µM
same,IC50,Leishmania donovani [4],> 100 µM
same,CC50,[5],28.2 µM
same,selectivity ratio,[6],234
same,selectivity ratio,[7],< 0.28
C=C(C)CC1CC(CCCCCC)OO1 (mixture of isomers),IC50,Candida albicans [1],35.7 µM
same,IC50,Aspergillus fumigatus,35.7 µM
same,IC50,Plasmodium falciparum [2],0.17 µM
same,IC50,Leishmania donovani [3],6.82 µM
same,IC50,Leishmania donovani [4],> 100 µM
same,CC50,[5],11.7 µM
same,selectivity ratio,[6],68
same,selectivity ratio,[7],1.71
CCCCCCC1CC(C/C=C\Br)OO1 (mixture of isomers),IC50,Candida albicans [1],> 100 µM
same,IC50,Aspergillus fumigatus,> 100 µM
same,IC50,Plasmodium falciparum [2],> 1 µM
same,IC50,Leishmania donovani [3],1.55 µM
same,IC50,Leishmania donovani [4],33.6 µM
same,CC50,[5],2.29 µM
same,selectivity ratio,[6],< 2
same,selectivity ratio,[7],1.48
CCCCCCC1CCOO1 (configuration not stated),IC50,Candida albicans [1],> 100 µM
same,IC50,Aspergillus fumigatus,> 100 µM
same,IC50,Plasmodium falciparum [2],> 1 µM
same,IC50,Leishmania donovani [3],49.8 µM
same,CC50,[5],10.6 µM
same,selectivity ratio,[6],< 10.6
same,selectivity ratio,[7],0.2
CC(=O)OC1CC(CCO[Si](c2ccccc2)(c2ccccc2)C(C)(C)C)OO1 (mixture of isomers),IC50,Candida albicans [1],> 100 µM
same,IC50,Aspergillus fumigatus,> 100 µM
same,IC50,Plasmodium falciparum [2],> 1 µM
same,IC50,Leishmania donovani [3],> 100 µM
CCCCCCC1CC(CC(=O)c2ccccc2)OO1 (mixture of isomers),IC50,Candida albicans [1],> 100 µM
same,IC50,Aspergillus fumigatus,> 100 µM
same,IC50,Plasmodium falciparum [2],0.37 µM
same,IC50,Leishmania donovani [3],> 100 µM
same,CC50,[5],9.02 µM
same,selectivity ratio,[6],24
same,selectivity ratio,[7],< 0.09
CCCCCCC1CC(CC(=O)SCC)OO1 (mixture of isomers),IC50,Candida albicans [1],> 100 µM
same,IC50,Aspergillus fumigatus,> 100 µM
same,IC50,Plasmodium falciparum [2],0.25 µM
same,IC50,Leishmania donovani [3],1.88 µM
same,IC50,Leishmania donovani [4],38.9 µM
same,CC50,[5],1.89 µM
same,selectivity ratio,[6],7
same,selectivity ratio,[7],1.01
